Experimental findings from patent US9730944B2, “Antiviral activity of novel bicyclic heterocycles” (priority 2010, dated 2017) are described below.

For series [1], the system named is genotype 1a H-77 replicon. Kind of series: HCV-1a replicon potency in RLuc-1 cells, bioluminescence. It is filed as cell-based. The note with it: for EC50: Hepatitis C virus, 72 h, read-out: HCV-1a Replicon EC50 (μM); for HCV-1a Replicon Selectivity Index: CC50/EC50, genotype 1a replicon. (A replicon is a self-replicating genome or part of one, used to study replication in cells.)

A short description of series [2]: Cytotoxicity in HCV-1a replicon cells, Promega CellTiter-Glo cell viability assay.

On to `Nc1nc(N2CCN(C(=O)COc3ccccc3)CC2)c2nc(CCc3ccc(F)cc3)sc2n1` [Example 134, 5-amino-2-[2-(4-fluorophenyl)ethyl]-7-(4-[2-phenoxyacetyl]piperazin-1-yl)-thiazolo[5,4-d]pyrimidine], for which the EC50 in series [1] was above 44.4 µM. In series [2], this molecule returned a CC50 at 72 h above 44.4 µM.

As to `Nc1nc(N2CCN(C(=O)COc3ccc(Cl)cc3)CC2)c2nc(-c3ccc(Cl)cc3)[nH]c2n1` [Example 392, 1-(4-(2-amino-8-(4-chlorophenyl)-9H-purin-6-yl)piperazin-1-yl)-2-(4-chlorophenoxy)ethanone], in series [1], the “HCV-1a Replicon Selectivity Index” value was found to be 4.6 and the EC50 worked out at 2.7 µM. In series [2], this molecule showed a 50% cytotoxic concentration (CC50) at 72 h of 12.2 µM.

As to `CSc1nc2c(N3CCN(C(=O)COc4ccc(Cl)cc4)CC3)nc(N)nc2[nH]1` [Example 424, 1-(4-(2-amino-8-(methylthio)-9H-purin-6-yl)piperazin-1-yl)-2-(4-chlorophenoxy)ethanone], in series [1], the “HCV-1a Replicon Selectivity Index” value is above 1.3 and the EC50 turned out to be 34.8 µM. In addition, the CC50 at 72 h in series [2] is above 44.4 µM.

For the molecule `Nc1nc(N2CCN(C(=O)COc3ccc(Cl)cc3)CC2)c2nc(-c3cccc(Cl)c3)[nH]c2n1` [Example 393, 1-(4-(2-amino-8-(3-chlorophenyl)-9H-purin-6-yl)piperazin-1-yl)-2-(4-chlorophenoxy)ethanone], in series [1], the “HCV-1a Replicon Selectivity Index” value is listed as 2.5 and the EC50 stood at 3.2 µM. For the same molecule, the midpoint of cytotoxicity in series [2], the CC50 at 72 h, lay at 8.1 µM.

For `Nc1nc(N2CCN(C(=O)COc3ccc(Cl)cc3)CC2)c2nc(-c3ccc(C(F)(F)F)cc3)[nH]c2n1` [Example 394, 1-(4-(2-amino-8-(4-(trifluoromethyl)phenyl)-9H-purin-6-yl)piperazin-1-yl)-2-(4-chlorophenoxy)ethanone], in series [1], the “HCV-1a Replicon Selectivity Index” value is on record as 1.2 and the 50% effective concentration (EC50) came to 9 µM. Moreover, in series [2], the cytotoxic concentration (CC50) at 72 h was 10.6 µM.

As for `Nc1nc(N2CCN(CC(=O)NCCc3ccccc3)CC2)c2nc(CCc3ccc(F)cc3)sc2n1` [Example 141, 5-amino-2-[2-(4-fluorophenyl)ethyl]-7-(4-(phenethylcarbamoyl-methyl)piperazin-1-yl)-thiazolo[5,4-d]pyrimidine], in series [1], the “HCV-1a Replicon Selectivity Index” value is 1.0 and the EC50 amounted to 15.8 µM. The same molecule yielded a half-maximal cytotoxic concentration (CC50) at 72 h in series [2] of 16 µM.

Turning to `Nc1nc(N2CCN(C(=O)COc3ccc(Cl)cc3)CC2)c2nc(C3CCCCC3)sc2n1` [Example 120, 5-amino-7-[4-(4-chlorophenoxyacetyl)piperazin-1-yl]-2-cyclohexylthiazolo[5,4-d]pyrimidine], in series [1], the “HCV-1a Replicon Selectivity Index” value is recorded as 2.1 and the EC50 was determined as 6.4 µM. For the same molecule, half-maximal cytotoxicity in series [2] (CC50 at 72 h) was put at 13.4 µM.

Turning to `Nc1nc(N2CC[C@@H](NC(=O)COc3ccc(Cl)cc3)C2)c2nc(CCc3ccc(F)cc3)sc2n1` [Example 143, 5-amino-2-[2-(4-fluorophenyl)ethyl]-7-(3-(R)-[2-(4-chlorophenoxy)-acetylamino]pyrrolidin-1-yl)-thiazolo[5,4-d]pyrimidine], in series [1], the “HCV-1a Replicon Selectivity Index” value came out at 0.7 and the concentration for a half-maximal effect (EC50) is above 44.4 µM. The midpoint of cytotoxicity in series [2], the CC50 at 72 h, lay at 30.4 µM.

On to `Nc1nc(N2CCN(C(=O)COc3ccc(Cl)cc3)CC2)c2nc(SCCc3ccccc3)[nH]c2n1` [Example 427, 1-(4-(2-amino-8-(phenethylthio)-9H-purin-6-yl)piperazin-1-yl)-2-(4-chlorophenoxy)ethanone], for which, in series [1], the “HCV-1a Replicon Selectivity Index” value stood at 1.1 and the half-maximal effective concentration (EC50) was 5.2 µM. In series [2], the cytotoxic concentration (CC50) at 72 h was found to be 5.8 µM.

`Nc1nc(N2CCN(C(=O)COc3ccccc3)CC2)c2cc(-c3ccccc3)sc2n1` [Example 332, 1-(4-(2-amino-6-phenylthieno[2,3-d]pyrimidin-4-yl)piperazin-1-yl)-2-phenoxyethanone]: in series [1], the “HCV-1a Replicon Selectivity Index” value worked out at 0.9 and the concentration for a half-maximal effect (EC50) was above 44.4 µM. This molecule also gave a CC50 at 72 h in series [2] of 38.5 µM.

Consider `Cc1cccc(NC(=O)N2CCN(c3nc(N)nc4sc(CCc5ccc(F)cc5)nc34)CC2)c1` [Example 133, 5-amino-2-[2-(4-fluorophenyl)ethyl]-7-(4-m-tolylcarbamoylpiperazin-1-yl)-thiazolo[5,4-d]pyrimidine], for which, in series [1], the “HCV-1a Replicon Selectivity Index” value is listed as 1.5 and the EC50 worked out at 10.7 µM. The CC50 at 72 h in series [2] worked out at 15.8 µM.

In the case of `Cc1cccc(NC(=O)N2CCCN(c3nc(N)nc4[nH]c(-c5ccc(F)cc5)nc34)CC2)c1` [Example 422, 4-(2-amino-8-(4-fluorophenyl)-9H-purin-6-yl)-N-m-tolyl-1,4-diazepane-1-carboxamide], in series [1], the “HCV-1a Replicon Selectivity Index” value worked out at 1.3 and the EC50 stood at 26.1 µM. Also, the half-maximal cytotoxic concentration (CC50) at 72 h in series [2] is 35.1 µM.

In the case of `Nc1nc(N2CCN(C(=O)COc3ccc(Cl)cc3)CC2)c2cc(-c3ccccc3)sc2n1` [Example 329, 1-(4-(2-amino-6-phenylthieno[2,3-d]pyrimidin-4-yl)piperazin-1-yl)-2-(4-chlorophenoxy)ethanone], in series [1], the “HCV-1a Replicon Selectivity Index” value came to 3.8 and the 50% effective concentration (EC50) was found to be 11.8 µM. The half-maximal cytotoxic concentration (CC50) at 72 h in series [2] is above 44.4 µM.

On to `COc1cccc(C(=O)N2CCN(c3nc(N)nc4[nH]c(-c5ccc(F)cc5)nc34)CC2)c1` [Example 402, (4-(2-amino-8-(4-fluorophenyl)-9H-purin-6-yl)piperazin-1-yl)(3-methoxyphenyl)methanone], for which, in series [1], the EC50 was above 44.4 µM. Besides, the CC50 at 72 h in series [2] is above 44.4 µM.

For the molecule `Nc1nc(N2CCN(C(=O)COc3ccc(Cl)cc3)CC2)c2nc(-c3ccc(Cl)c(Cl)c3)sc2n1` [Example 116, 5-amino-7-[4-(4-chlorophenoxyacetyl)piperazin-1-yl]-2-(3,4-dichlorophenyl)thiazolo[5,4-d]pyrimidine], in series [1], the “HCV-1a Replicon Selectivity Index” value is 0.8 and the concentration for a half-maximal effect (EC50) is above 44.4 µM. The molecule further registered a CC50 at 72 h in series [2] of 37.2 µM.

In the case of `Nc1nc(NC2CCCN(C(=O)OCc3ccccc3)C2)c2nc(CCc3ccc(F)cc3)sc2n1` (stereo not shown) [Example 145, 5-amino-2-[2-(4-fluorophenyl)ethyl]-7-(1-benzyloxycarbonylpiperidin-3-ylamino)-thiazolo[5,4-d]pyrimidine], in series [1], the “HCV-1a Replicon Selectivity Index” value worked out at 2.1 and the half-maximal effective concentration (EC50) amounted to 13.1 µM. In series [2], the cytotoxic concentration (CC50) at 72 h was found to be 27.6 µM.

Consider `CN(C(=O)CN1CCN(c2nc(N)nc3[nH]c(-c4ccc(F)cc4)nc23)CC1)c1ccccc1` [Example 413, 2-(4-(2-amino-8-(4-fluorophenyl)-9H-purin-6-yl)piperazin-1-yl)-N-methyl-N-phenylacetamide], for which, in series [1], the “HCV-1a Replicon Selectivity Index” value was 0.5 and the 50% effective concentration (EC50) was above 44.4 µM. This molecule showed a CC50 at 72 h in series [2] of 20.3 µM.

As for `Nc1nc(N[C@H]2CCN(C(=O)COc3ccc(Cl)cc3)C2)c2nc(CCc3ccc(F)cc3)sc2n1` [Example 147, 5-amino-2-[2-(4-fluorophenyl)ethyl]-7-(1-(4-chlorophenoxyacetyl)pyrrolidin-3-(S)-ylamino)-thiazolo[5,4-d]pyrimidine], in series [1], the “HCV-1a Replicon Selectivity Index” value came to 0.5 and the EC50 is 31 µM. Half-maximal cytotoxicity in series [2] (CC50 at 72 h) was put at 15.5 µM.

Regarding `Cn1c(-c2ccc(F)cc2)nc2c(N3CCN(C(=O)COc4ccc(Cl)cc4)CC3)nc(N)nc21` [Example 430, 1-(4-(2-amino-8-(4-fluorophenyl)-9-methyl-9H-purin-6-yl)piperazin-1-yl)-2-(4-chlorophenoxy)ethanone], in series [1], the “HCV-1a Replicon Selectivity Index” value worked out at 54.0 and the EC50 came to 0.3 µM. In series [2], the cytotoxic concentration (CC50) at 72 h stood at 15.1 µM.

The EC50 is the concentration needed to bring the measured effect to its halfway point. Usually CC50 stands for the concentration at which the toxic effect on the cells reaches its halfway point.
